# Assay results from patent publication US10030016B2 (Sunesis Pharmaceuticals, Inc., priority 2009, dated 2018).
# Counter-ions that a name gives are not always drawn. Like-named read-outs stand apart in the source and are kept apart here.
# Tests used:
# PDK1 = PDK1 (Homo sapiens (Human), UniProt O15530); assay: PDK1 kinase assay (coupled PDK1/AKT/FAM-crosstide assay, IMAP fluorescence polarization); type: biochemical
# Summary of the method: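 GST-tagged human PDK1 (aa 51-359, 0.75 nM) from insect cells activated unphosphorylated GST-AKT2 (aa 140-467–PIFtide fusion, 10 nM), which phosphorylated 100 nM FAM-crosstide; 40 μM ATP, pH 7.2 Tris/MgCl2, 30 min at 25° C. IMAP fluorescence polarization read-out; ΔmP versus compound concentration fitted with a 4-parameter curve.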
# [1] = system: phospho-akt (Thr308) in PC-3 cells; assay: Inhibition of phospho-akt (Thr308) in PC-3 cells, MSD phospho-akt 308 ELISA kit; type: cell-based; conditions: 2 hours, no serum, read-out: EC50
# Summary of the method: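 Phospho-Akt (Thr308) levels were measured by MSD ELISA after PC-3 cells received compound for 2 hours in serum-free medium. Controls: DMSO (high), 5 μM wortmannin (low).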
# [2] = inhibition of P308 Akt in PC-3 cells using MSD
# [3] = Homo sapiens, inhibition of P308 Akt in PC-3 cells using MSD
# [4] = inhibition of phospo-PDK1 in vitro
# [5] = Homo sapiens, inhibition of P308 Akt in PC-3 cells, MSD
# Sequence of PDK1 (O15530 51-359): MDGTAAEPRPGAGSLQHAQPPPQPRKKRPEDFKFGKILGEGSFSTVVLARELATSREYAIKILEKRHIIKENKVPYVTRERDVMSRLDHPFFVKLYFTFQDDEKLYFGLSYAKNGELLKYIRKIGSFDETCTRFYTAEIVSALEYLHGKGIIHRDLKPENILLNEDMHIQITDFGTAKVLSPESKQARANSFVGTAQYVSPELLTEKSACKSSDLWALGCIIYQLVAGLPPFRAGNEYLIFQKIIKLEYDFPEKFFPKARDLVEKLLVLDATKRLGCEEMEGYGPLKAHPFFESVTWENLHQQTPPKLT
smiles,measurement,setting,value
"C[C@H](NC(=O)c1nc(C#N)cnc1NCc1ccc(-c2cnc(N)c(CCC3CCNC3)n2)cc1)c1ccc(F)c(F)c1 (single isomer, unassigned) [Example 80]",IC50,PDK1; inhibition of PDK1 in vitro,< 100 nM
same,EC50,[1]; [2],1000 to 10000 nM
C[C@H](NC(=O)c1cc(C#N)cnc1NCc1ccc(-c2cnc(N)c(C(=O)NCCCN(C)C)n2)cc1)c1ccc(F)cc1 [Example 211],IC50,PDK1; inhibition of PDK1 in vitro,< 100 nM
same,EC50,[1]; [3],1000 to 10000 nM
"CNc1ncc2cc(OCCNc3ncc(C#N)cc3C(=O)N[C@@H](C)c3ccc(F)cc3)ccc2n1 [Example 250, (S)-5-cyano-N-(1-(4-fluorophenyl)ethyl)-2-(2-(2-(methylamino)quinazolin-6-yloxy)ethylamino)nicotinamide]",IC50,PDK1; inhibition of PDK1 in vitro,< 100 nM
same,EC50,[1]; [3],< 1000 nM
"Nc1n[nH]c2ncc(-c3ccc(CNc4ncc(C(F)(F)F)cc4C(=O)Nc4ccc(F)nc4)cc3)cc12 [Example 267, 2-(4-(3-amino-1H-pyrazolo [3,4-b]pyridin-5-yl)benzylamino)-N-(6-fluoropyridin-3-yl)-5-(trifluoromethyl) nicotinamide]",IC50,PDK1; inhibition of PDK1 in vitro,< 100 nM
same,EC50,[1]; [3],< 1000 nM
"Nc1n[nH]c2ncc(-c3ccc(CNc4ncc(C(F)(F)F)cc4C(=O)NCC4CCCO4)cc3)cc12 (stereo not shown) [Example 265, 2-(4-(3-amino-1H-pyrazolo [3,4-b]pyridin-5-yl)benzylamino)-N-((tetrahydrofuran-2-yl)methyl)-5-(trifluoromethyl) nicotinamide]",IC50,PDK1; inhibition of PDK1 in vitro,< 100 nM
same,EC50,"[1]; Homo sapiens, PC-3, 2 h, inhibition of P308 Akt in PC-3 cells using MSD",1000 to 10000 nM
"Nc1ncnc2ccc(-c3ccc(CNc4ncc(S(=O)(=O)N5CCOCC5)cc4C(=O)NCc4ccc(F)c(F)c4)s3)cc12 [Example 8.7.12, 2-(((5-(4-aminoquinazolin-6-yl)thiophen-2-yl)methyl)amino)-N-(3,4-difluorobenzyl)-5-(morpholinosulfonyl) nicotinamide]",IC50,PDK1; [4],100 to 1000 nM
same,EC50,[1]; [5],< 1000 nM
"Cn1cc(-c2ccc(CNc3ncc(C#N)nc3C(=O)NCc3cncc(F)c3)cc2)c2c(N)ncnc21 [Example 28, 3-(4-(4-amino-7-methyl-7H-pyrrolo[2,3-d]pyrimidin-5-yl)benzylamino)-6-cyano-N-((5-fluoropyridin-3-yl)methyl)pyrazine-2-carboxamide]",IC50,PDK1; [4],< 100 nM
same,EC50,[1]; [5],< 1000 nM
"Nc1ncnc2ccc(-c3ccc(CNc4nccc5c4C(=O)N(Cc4ccc(F)c(F)c4)C5)s3)cc12 [Ex. 7.19, 4-({[5-(4-aminoquinazolin-6-yl)thiophen-2-yl]methyl}amino)-2-(3,4-difluorobenzyl)-1,2-dihydro-3H-pyrrole[3,4-c]pyridin-3-one]",IC50,PDK1; [4],100 to 1000 nM
same,EC50,[1]; [5],1000 to 10000 nM
"C[C@H](NC(=O)c1cc(C#N)cnc1NCc1ccc(-c2cnc3[nH]nc(CN(C)C)c3c2)cc1)c1ccc(F)cc1 [Example 151, (S)-5-cyano-2-(4-(3-((dimethylamino)methyl)-1H-pyrazolo[3,4-b]pyridin-5-yl)benzyl-amino)-N-(1-(4-fluorophenyl)ethyl) nicotinamide]",IC50,PDK1; inhibition of PDK1 in vitro,< 100 nM
same,EC50,[1]; [3],> 10000 nM
"CNS(=O)(=O)c1cnc(NCc2ccc(-c3ccc4ncnc(N)c4c3)s2)c(C(=O)N[C@@H](C)c2ccc(F)c(F)c2)c1 [Example 8.7.4, 2-({[5-(4-aminoquinazolin-6-yl)thiophen-2-yl]methyl}amino)-N-[(1S)-1-(3,4-difluorophenyl)ethyl]-5-(methylsulfamoyl) pyridine-3-carboxamide]",IC50,PDK1; [4],< 100 nM
same,EC50,[1]; [5],< 1000 nM
"CC(C)C(=O)Nc1cnc(NCc2ccc(-c3ccc4ncnc(N)c4c3)s2)c(C(=O)NCc2ccc(F)c(F)c2)c1 [Example 8.5.3, 2-({[5-(4-aminoquinazolin-6-yl)thiophen-2-yl]methyl}amino)-N-(3,4-difluorobenzyl)-5-[(2-methylpropanoyl)amino] pyridine-3-carboxamide]",IC50,PDK1; [4],100 to 1000 nM
same,EC50,[1]; [5],1000 to 10000 nM
"O=C(NCc1ccc(F)c(F)c1)c1cccnc1NCc1cc(-c2c[nH]c3ncccc23)cs1 [Ex. 6.15, N-(3,4-difluorobenzyl)-2-({[4-(1H-pyrrolo[2,3-b]pyridin-3-yl)thiophen-2-yl]-methyl}amino) pyridine-3-carboxamide]",IC50,PDK1; [4],100 to 1000 nM
same,EC50,[1]; [5],> 10000 nM
C[C@H](NC(=O)c1nc(C#N)cnc1NCc1ccc(-c2cnc(N)c(N3CCC[C@H](N)C3)n2)cc1)c1ccc(F)c(F)c1 [Example 198],IC50,PDK1; inhibition of PDK1 in vitro,< 100 nM
same,EC50,[1]; [3],< 1000 nM
"CN(c1ncnc2ccc(-c3ccc(CNc4ncccc4C(=O)NCc4ccc(F)c(F)c4)s3)cc12)C1CCCCC1 [Example 4.21, 2-(((5-(4-(cyclohexyl (methyl)amino)quinazolin-6-yl)thiophen-2-yl)methyl)amino)-N-(3,4-difluorobenzyl) nicotinamide]",IC50,PDK1; [4],> 5000 nM
same,EC50,[1]; [5],> 10000 nM
"Cn1cnc2cnc3ccc(-c4ccc(CNc5ncc(C#N)nc5C(=O)NCc5ccc(F)c(F)c5)s4)cc3c21 [Example 3.81, 6-cyano-N-(3,4-difluorobenzyl)-3-(((5-(1-methyl-1H-imidazo [4,5-c]quinolin-8-yl)thiophen-2-yl)methyl)amino)pyrazine-2-carboxamide (TFA salt)]",IC50,PDK1; [4],< 100 nM
same,EC50,[1]; [5],< 1000 nM
C[C@H](NC(=O)c1nc(C#N)cnc1NCC1CCC(c2cc3c(N)ncnc3n2C)CC1)c1ccc(F)c(F)c1 (stereo partly shown) [Example 340],IC50,PDK1; inhibition of PDK1 in vitro,> 5000 nM
same,EC50,[1]; [3],1000 to 10000 nM
"O=C(NCc1ccc(F)c(F)c1)c1cccnc1NCc1ccc(-c2ccc3ncnc(NC4CC4)c3c2)s1 [Example 4.10, 2-(((5-(4-(cyclopropylamino)quinazolin-6-yl)thiophen-2-yl)methyl)amino)-N-(3,4-difluorobenzyl)nicotinamide]",IC50,PDK1; [4],< 100 nM
same,EC50,[1]; [5],1000 to 10000 nM
"C[C@H](NC(=O)c1cccnc1NCc1ccc(-c2cn(C)c(=O)c3ccccc23)s1)c1ccc(F)cc1 [Example 2.10, (S)-N-(1-(4-fluorophenyl)ethyl)-2-(((5-(2-methyl-1-oxo-1,2-di-hydroisoquinolin-4-yl)thiophen-2-yl)methyl)amino)nicotinamide]",IC50,PDK1; [4],> 5000 nM
same,EC50,[1]; [5],> 10000 nM
Nc1ncnc2ccc(-c3cnc(CNc4ncccc4C(=O)NCc4ccc(F)c(F)c4)s3)cc12 [Ex. 7.1],IC50,PDK1; [4],100 to 1000 nM
same,EC50,[1]; [5],1000 to 10000 nM
"Nc1ncnn2ccc(-c3ccc(CNc4ncc(C(F)(F)F)cc4C(=O)Nc4ccc(F)cc4)cc3)c12 [Example 177, 2-[4-(4-Amino-pyrrolo [2,1-f][1,2,4]triazin-5-yl)-benzylamino]-N-(4-fluoro-phenyl)-5-trifluoromethyl-nicotinamide]",IC50,PDK1; inhibition of PDK1 in vitro,< 100 nM
same,EC50,[1]; [3],1000 to 10000 nM
"Cc1cc(CNc2ncc(C#N)cc2C(=O)N[C@@H](C)c2ccc(F)cc2)ccc1-c1cnc2[nH]nc(N)c2c1 [Example 408, 2-[4-(3-Amino-1H-pyrazolo [3,4-b]pyridin-5-yl)-3-methyl-benzylamino]-5-cyano-N-[(S)-1-(4-fluoro-phenyl)-ethyl]-nicotinamide]",IC50,PDK1; inhibition of PDK1 in vitro,< 100 nM
same,EC50,[1]; [3],1000 to 10000 nM
"CNC(=O)C[C@@H](Nc1ncc(C#N)cc1C(=O)N[C@@H](C)c1ccc(F)cc1)c1ccc(-c2c[nH]c3ncnc(N)c23)cc1 [Example 47, 2-((R)-1-(4-(4 - amino-7H-pyrrolo[2,3-d]pyrimidin-5-yl)phenyl)-3-(methylamino)-3-oxopropylamino)-5-cyano-N-((S)-1-(4-fluorophenyl)ethyl)nicotinamide]",IC50,PDK1; inhibition of PDK1 in vitro,< 100 nM
same,EC50,[1]; [3],> 10000 nM
"CC(N)CCc1nc(-c2ccc(CNc3ncc(C(F)(F)F)cc3C(=O)Nc3ccc(F)cc3)cc2)cnc1N (stereo not shown) [Example 86, 2-{4-[5-Amino-6-(3-amino-butyl)-pyrazin-2-yl]-benzylamino}-N-(4-fluoro-phenyl)-5-trifluoro-methyl-nicotinamide]",IC50,PDK1; inhibition of PDK1 in vitro,< 100 nM
same,EC50,[1]; [2],< 1000 nM
